For the first assay, the target named is NS5B570-Con1 (Delta-21) (Hepatitis C virus genotype 1b, UniProt Q9WMX2). As to the kind of experiment: NS5B inhibition assay. Conditions: IC50, incorporation of tritiated NMP into acid-insoluble RNA, 2 hours at 37° C. The assay is classed as biochemical, HCV. How it is done:
The enzyme activity of NS5B570-Con1 (Delta-21) was measured as an incorporation of tritiated NMP into acid-insoluble RNA products. The complementary IRES (cIRES) RNA sequence was used as a template, corresponding to 377 nucleotides from the 3′-end of HCV (−) strand RNA of the Con-1 strain, with a base content of 21% Ade, 23% Ura, 28% Cyt, and 28% Gua. The cIRES RNA was transcribed in vitro using a T7 transcription kit (Ambion, Inc.) and purified using the Qiagen RNeasy maxi kit. HCV polymerase reactions contained 50 nM NS5B570-Con1, 50 nM cIRES RNA, about 0.5 μCi tritiated NTP, 1 μm of competing cold NTP, 20 mM NaCl, 40 mm Tris-HCl (pH 8.0), 4 mm dithiothreitol, and 4 mm MgCl2. Standard reactions were incubated for 2 hours at 37° C., in the presence of increasing concentration of inhibitor. At the end of the reaction, RNA was precipitated with 10% TCA, and acid-insoluble RNA products were filtered on a size exclusion 96-well plate. After washing of the plate, scintillation liquid was added and radio labeled RNA products were detected according to standard procedures with a Trilux Topcount scintillation counter. The compound concentration at which the enzyme-catalyzed rate was reduced by 50% (IC50) was calculated by fitting the data to a non-linear regression (sigmoidal). The IC50 values were derived from the mean of several independent experiments. […]
One may read the IC50 as the midpoint of a concentration-inhibition curve. Higher therefore signals weaker potency in that assay. Compound `C#CC1(O)C(O)C(COP(O)(=S)OP(=O)(O)OP(=O)(O)O)OC1n1ccc(=O)[nH]c1=O` (centres unmarked) [Compound 23a] displayed an IC50 below 1 µM.

As for `C#CC1(O)C(O)C(COP(O)(=S)OP(=O)(O)OP(=O)(O)O)OC1n1ccc(=O)[nH]c1=O` (centres unmarked) [Compound 24a], the IC50 was below 10 µM.

A further assay concerns HCV genotype 1b HCV replicon harbored in Huh7 cells. In words: Combination testing in HCV replicon (CalcuSyn CI, MacSynergy II synergy volume). The assay is classed as cell-based.
Conditions: not given
Here is the method:
Two or more test compounds were tested in combination with each other using an HCV genotype 1b HCV replicon harbored in Huh7 cells with a stable luciferase (LUC) reporter. Cells were cultured under standard conditions in Dulbecco's modified Eagle's medium (DMEM; Mediatech Inc, Herndon, Va.) containing 10% heat-inactivated fetal bovine serum (FBS; Mediatech Inc, Herndon, Va.) 2 mM L-glutamine, and nonessential amino acids (JRH Biosciences). HCV replicon cells were plated in a 96-well plate at a density of 10^4 cells per well in DMEM with 10% FBS. On the following day, the culture medium was replaced with DMEM containing either no compound as a control, the test compounds serially diluted in the presence of 2% FBS and 0.5% DMSO, or a combination of compound 1a with one or more test compounds serially diluted in the presence of 2% FBS and 0.5% DMSO. The cells were incubated with no compound as a control, with the test compounds, or the combination of compounds for 72 hours. The direct effects of the combination of the test compounds were examined using a luciferase (LUC) based reporter as determined by the Bright-Glo Luciferase Assay (Promega, Madison, Wis.). Dose-response curves were determined for individual compounds and fixed ratio combinations of two or more test compounds.
The effects of test compound combinations were evaluated by two separate methods. In the Loewe additivity model, the experimental replicon data was analyzed by using CalcuSyn (Biosoft, Ferguson, Mo.), a computer program based on the method of Chou and Talalay. The program uses the experimental data to calculate a combination index (CI) value for each experimental combination tested. […]
The second method utilized for evaluating combination effects used a program called MacSynergy II. […] The volumes of synergy (positive volumes) or antagonism (negative volumes) represent the relative quantity of synergism or antagonism per change in the concentrations of the two drugs. […]
For `CCC[C@H](NC(=O)[C@@H]1[C@H]2CCC[C@H]2CN1C(=O)[C@@H](NC(=O)[C@@H](NC(=O)c1cnccn1)C1CCCCC1)C(C)(C)C)C(=O)C(=O)NC1CC1` [Compound 1001, Telaprevir], the “Synergy Volume” value is 104 μM^2%.

Take `CC1CCC(C(=O)N(c2cc(C#CC(C)(C)C)sc2C(=O)O)C2CCC(O)CC2)CC1` (centres unmarked) [Compound 3003]: the “Synergy Volume” value is on record as 32 μM^2%.

The assay is the same for the next values; noted with them: combination of compound 1a with the listed compound; 72 hours; MacSynergy II, Bliss independence; 25-100 synergistic, >100 strong synergistic.
`CC(C)OC(=O)C(C)NP(=S)(OC[C@H]1O[C@@H](n2ccc(=O)[nH]c2=O)[C@](C)(O)[C@@H]1O)Oc1ccccc1` (some centres unmarked) [Compound 6002]: the “Synergy Volume” value is on record as 29 μM^2%.

A further assay relates to Huh-7 cells containing the self-replicating, subgenomic HCV replicon. In words: HCV replicon assay (luciferase reporter). The assay is classed as cell-based. Conditions: Hepatitis C virus, Huh-7, 72 h. Here is the method: Huh-7 cells containing the self-replicating, subgenomic HCV replicon with a stable luciferase (LUC) reporter were cultured in Dulbecco's modified Eagle's medium (DMEM) containing 2 mM L-glutamine and supplemented with 10% heat-inactivated fetal bovine serum (FBS), 1% penicillin-streptomyocin, 1% nonessential amino acids, and 0.5 mg/mL G418.
Determination of 50% inhibitory concentration (EC50) of compounds in HCV replicon cells were performed by the following procedure. On the first day, 5,000 HCV replicon cells were plated per well in a 96-well plate. On the following day, test compounds were solubilized in 100% DMSO to 100× the desired final testing concentration. Each compound was then serially diluted (1:3) up to 9 different concentrations. Compounds in 100% DMSO are reduced to 10% DMSO by diluting 1:10 in cell culture media. The compounds were diluted to 10% DMSO with cell culture media, which were used to dose the HCV replicon cells in 96-well format. The final DMSO concentration was 1%. The HCV replicon cells were incubated at 37° C. for 72 hours. At 72 hours, cells were processed when the cells are still subconfluent. Compounds that reduce the LUC signal are determined by Bright-Glo Luciferase Assay (Promega, Madison, Wis.). % Inhibition was determined for each compound concentration in relation to the control cells (untreated HCV replicon) to calculate the EC50.
Compounds of Formula (I) are active in the replicon assay. The antiviral activity of exemplary compounds is shown in Table 3, where ‘A’ indicates an EC50<1 μM, ‘B’ indicates an EC50≧1 μM and <10 μM, and ‘C’ indicates an EC50≧10 μM and <100 μM.
(Replicon systems follow genome replication, usually without infectious particles.)
By EC50 is commonly meant the midpoint of the concentration-response curve. Low values mean a more potent agent, high ones a less potent agent. As to `C#C[C@@]1(O)[C@H](O)[C@@H](COP(=S)(N[C@@H](C)C(=O)OC(C)C)Oc2ccccc2)O[C@H]1n1ccc(=O)[nH]c1=O` (some centres unmarked) [Compound 1a], the EC50 is below 1 µM.

Take `C#C[C@@]1(O)[C@H](O)[C@@H](CO[P@@](=S)(N[C@@H](C)C(=O)OC(C)C)Oc2ccccc2)O[C@H]1n1ccc(=O)[nH]c1=O` [Compound 1aa]: the EC50 is below 1 µM.

`C#C[C@@]1(O)[C@H](O)[C@@H](CO[P@](=S)(N[C@@H](C)C(=O)OC(C)C)Oc2ccccc2)O[C@H]1n1ccc(=O)[nH]c1=O` [Compound 1ab] showed an EC50 below 1 µM.

For `C=C[C@@]1(O)[C@H](O)[C@@H](COP(=S)(N[C@@H](C)C(=O)OC(C)C)Oc2ccccc2)O[C@H]1n1ccc(=O)[nH]c1=O` (some centres unmarked) [Compound 2a], the concentration for a half-maximal effect (EC50) fell in the range of 1 to 10 µM.

`C#C[C@@]1(O)[C@H](O)[C@@H](COP(=S)(N[C@@H](C)C(=O)OC(C)C)Oc2ccccc2)O[C@H]1n1cnc2c(N)ncnc21` (some centres unmarked) [Compound 4a] yielded an EC50 below 1 µM.

In turn, `C#C[C@@]1(O)[C@H](O)[C@@H](COP(=S)(N[C@@H](C)C(=O)OC(C)C)Oc2ccccc2)O[C@H]1n1cnc2c(=O)[nH]c(N)nc21` (some centres unmarked) [Compound 6a] showed an EC50 of 1 to 10 µM.

On to `C#C[C@@]1(O)[C@H](O)[C@@H](COP(=S)(N[C@@H](CCSC)C(=O)OC(C)C)Oc2ccccc2)O[C@H]1n1ccc(=O)[nH]c1=O` (some centres unmarked) [Compound 7a], for which the EC50 is below 1 µM.

`C#C[C@@]1(O)[C@H](O)[C@@H](COP(=S)(N[C@H](C(=O)OC(C)C)C(C)C)Oc2ccccc2)O[C@H]1n1ccc(=O)[nH]c1=O` (some centres unmarked) [Compound 8a]: the EC50 lay in the range of 10 to 100 µM.

Compound `C#C[C@@]1(O)[C@H](O)[C@@H](COP(=S)(N[C@@H](CC(C)C)C(=O)OC(C)C)Oc2ccccc2)O[C@H]1n1ccc(=O)[nH]c1=O` (some centres unmarked) [Compound 9a] came in with an EC50 of 1 to 10 µM.

`C#C[C@@]1(O)[C@H](O)[C@@H](COP(=S)(N[C@@H](C)C(=O)OC(C)C)Oc2ccc(F)cc2)O[C@H]1n1ccc(=O)[nH]c1=O` (some centres unmarked) [Compound 10a]: the EC50 was below 1 µM.

The compound `C#C[C@@]1(O)[C@H](O)[C@@H](COP(=S)(N[C@@H](C)C(=O)OC(C)C)Oc2ccc(Cl)cc2)O[C@H]1n1ccc(=O)[nH]c1=O` (some centres unmarked) [Compound 11a] registered an EC50 below 1 µM.

As for `C#C[C@@]1(O)[C@H](O)[C@@H](COP(=S)(N[C@@H](C)C(=O)OC(C)C)Oc2ccc(F)c(Cl)c2)O[C@H]1n1ccc(=O)[nH]c1=O` (some centres unmarked) [Compound 12a], the EC50 is below 1 µM.

For `C#C[C@@]1(O)[C@H](O)[C@@H](COP(=S)(N[C@@H](C)C(=O)OC(C)C)Oc2cccc3ccccc23)O[C@H]1n1ccc(=O)[nH]c1=O` (some centres unmarked) [Compound 13a], the EC50 was below 1 µM.

Consider `CC#C[C@@]1(O)[C@H](O)[C@@H](COP(=S)(N[C@@H](C)C(=O)OC(C)C)Oc2ccccc2)O[C@H]1n1ccc(=O)[nH]c1=O` (some centres unmarked) [Compound 14a], for which the EC50 was 1 to 10 µM.

For the compound `CC(C)OC(=O)[C@H](C)NP(=S)(OC[C@H]1O[C@@H](n2ccc(=O)[nH]c2=O)[C@@](O)(C#CI)[C@@H]1O)Oc1ccccc1` (some centres unmarked) [Compound 15a], the EC50 was below 1 µM.

With `C#C[C@@]1(F)[C@H](O)[C@@H](COP(=S)(N[C@@H](C)C(=O)OC(C)C)Oc2ccccc2)O[C@H]1n1ccc(=O)[nH]c1=O` (some centres unmarked) [Compound 16a], the EC50 fell in the range of 1 to 10 µM.

In turn, `C#C[C@@]1(O)[C@H](O)[C@@H](COP(=S)(N[C@@H](C)C(=O)OC2CCCCC2)Oc2ccccc2)O[C@H]1n1cnc2c(=O)[nH]c(N)nc21` (some centres unmarked) [Compound 17a] came in with an EC50 of 1 to 10 µM.

As to `CCC#C[C@@]1(O)[C@H](O)[C@@H](COP(=S)(N[C@@H](C)C(=O)OC(C)C)Oc2ccccc2)O[C@H]1n1ccc(=O)[nH]c1=O` (some centres unmarked) [Compound 18a], the EC50 is 10 to 100 µM.

The compound `C#C[C@@]1(O)[C@H](O)[C@@H](COP(=S)(N[C@@H](CCC)C(=O)OC(C)C)Oc2ccccc2)O[C@H]1n1ccc(=O)[nH]c1=O` (some centres unmarked) [Compound 19a] registered an EC50 below 1 µM.

As for `CC(C)C#C[C@@]1(O)[C@H](O)[C@@H](COP(=S)(N[C@@H](C)C(=O)OC(C)C)Oc2ccccc2)O[C@H]1n1ccc(=O)[nH]c1=O` (some centres unmarked) [Compound 20a], the EC50 lay within 10 to 100 µM.

Turning to `C#C[C@@]1(O)[C@H](O)[C@@H](COP(=S)(N[C@@H](CC)C(=O)OC(C)C)Oc2ccccc2)O[C@H]1n1ccc(=O)[nH]c1=O` (some centres unmarked) [Compound 21a], the EC50 was below 1 µM.
